As a reminder, the IC50 is the concentration that inhibits the measured activity by half. Higher therefore signals weaker potency. Usually Kd stands for the free concentration of one partner at which half of the binding sites on the other are occupied at equilibrium, for simple one-to-one binding.

Test [1] deals with T1, Human NGF (MG87 cells stably transfected with human TrkA receptor) (Homo sapiens, UniProt P01138, DEL136-138/DEL208-209).
T1 construct: host or cells: NGF added exogenously; partner TrkA made by stably transfected MG87 cells
T1 sequence (P01138 with tags, fused parts or gaps DEL136-138/DEL208-209): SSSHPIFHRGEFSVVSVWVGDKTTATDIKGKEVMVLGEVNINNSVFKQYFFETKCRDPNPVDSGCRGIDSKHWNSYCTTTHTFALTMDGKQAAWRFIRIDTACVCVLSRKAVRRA
Description: NGF-dependent, TrkA receptor-mediated cell growth of MG87 cells (CCK8). As to conditions: 373 pM human NGF; 3 days. The test is classed as cell-based. On the procedure: The ability of NGF antibodies to block NGF-dependent and TrkA receptor-mediated cell growth activity was carried out using MG87 cells stably transfected with a plasmid encoding human TrkA receptor. Briefly, the transfected cells were trypsinized and resuspended at approximately 2.5×10^5 cells per ml and plated at 5,000 cells per well in a 96-well tissue culture plate. The purified antibody proteins were serially diluted in defined medium plus 0.1% BSA and added to the plated cells at concentrations ranging from 0 to 500 nM. Human NGF was added to the wells to a final concentration of 373 pM. The response was measured after incubating the cells for 3 days at 37° C. in a humidified 5% CO2 incubator. Cell growth activity was measured with a CCK8 kit (Dojindo) and OD450nm recorded. The dependency of the signals on the concentrations of antibody was analyzed and IC50 values reported (Table 10, column 2).

The subject of test [2] is C57BL/6 male mice. Put plainly: Complete Freund's Adjuvant (CFA) test of inflammatory pain, Hargreaves' test. It is filed as in vivo, mouse. As to the method: Complete Freund's Adjuvant (CFA) test of inflammatory pain. To determine if anti-NGF antibodies could relieve pain in a chronic peripheral inflammatory mouse model, complete Freund's adjuvant (CFA) was injected subcutaneously (s.c.) into the hind paw of C57BL/6 male mice, causing thermal hyperalgesia, which was measured using the Hargreaves' test (Torres et al. (2007) Pain 130:267-278). Control mice received the vehicle (i.e., PBS) only. After acclimating the mice to the Hargreaves' apparatus (model 336, IITC Life Science) for 2-3 hours per day for 3 days, they were tested in the apparatus with an active intensity setting of 17%. A cut-off time of 25 sec was used to avoid tissue damage. For each mouse, 3 readings were obtained during a period of 30 min per day and the median latency was used for analysis. […] The Hargreaves' test was repeated daily for up to 4 days after CFA injection and % decrease from the baseline in paw withdrawal latency calculated (Tables 12 and 13, mean % change±SEM). […] There was no statistical difference between the tested antibodies and the control antibody. Table 12: n=7 for each group; all groups 10 mg/kg.

Test [3] addresses Human NGF binding to human p75-hFc (Homo sapiens, UniProt P01138, DEL136-138/DEL208-209). Put plainly: BIACORE receptor blocking assay, free NGF bound to p75-hFc. As to conditions: percentage free NGF bound; NGF 10-25 nM with molar excess of antibody; NGF alone = 100%. The text has this: To identify blocking antibodies, a receptor blocking assay was designed using a BIACORE™ 3000 instrument. Recombinant human TrkA-hFc and human p75-hFc proteins were amine-coupled to a CM5 chip to a density of about 5000-6000 RU.
On the technique in general: Surface plasmon resonance follows binding to a sensor surface in real time, without labels.

The target of test [4] is mouse NGF (mNGF) (Mus musculus, UniProt P01139). Description: BIACORE binding affinity to mouse NGF. As to the method:
Antigen binding affinities of the antibodies for human NGF were determined by surface kinetics using a real-time biosensor surface plasmon resonance assay (BIACORE™). Antibodies were captured on either a goat, anti-human or anti-mouse IgG polyclonal antibody surface created by direct amine coupling of the capture antibody to a BIACORE™ chip. Various concentrations of human NGF were injected over the captured antibody surfaces while the association of the antigen to the antibody and the dissociation of the bound complex were monitored in real time. Kinetic analysis was performed to obtain the equilibrium dissociation constant (KD) and dissociation rate constant, and the latter was used to calculate the antigen/antibody complex dissociation t1/2 (Table 1).
Human NGF (NGF) is highly homologous in amino acid sequence to mouse NGF (mNGF) and rat NGF (rNGF) with about 90% identity. The binding affinities of the antibodies to both mNGF and rNGF were determined as described above.
The binding affinity of selected purified anti-NGF antibodies to mNGF and rNGF were also determined (Table 6).

For test [5], the system named is circulating levels of neurotrophin-3 (NT-3). Put plainly: Serum NT-3 sandwich ELISA, mice of post incision pain model. The test is classed as in vivo, mouse. Particulars: day 4, 25 mg/kg i.p., mean±std dev, limit of detection ~40 pg/ml. The text has this:
On day 4, after the behavioral tests from post incision pain model were completed, the mice's sera were collected and analyzed for circulating levels of neurotrophin-3 (NT-3) using a sandwich ELISA. The limit of detection (˜40 pg/ml) was defined as two standard deviations (2σ) above background with a minimum of five NT-3 standards to define the response to concentration curve.
For orientation: ELISA stands for enzyme-linked immunosorbent assay.

For test [6], the target named is T2, human NT-3 (Homo sapiens, UniProt P20783).
T2 sequence (P20783 139-257): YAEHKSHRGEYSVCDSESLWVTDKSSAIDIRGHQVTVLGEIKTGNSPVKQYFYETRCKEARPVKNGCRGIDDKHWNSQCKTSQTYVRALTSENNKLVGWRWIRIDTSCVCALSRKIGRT
Put plainly: BIACORE cross-reactivity test, NT-3. The test is classed as binding. As to conditions: NT-3 1.25 nM to 40 nM; purified antibodies. As to the method:
The anti-NGF antibodies were examined for binding cross-reactivity with human NT-3. Briefly, goat anti-human IgG polyclonal antibody was chemically linked to a CM5 chip. Anti-NGF monoclonal antibodies were injected forming a surface of about 50 to 900 RU of immobilized antibody through the interaction with the chip coupled polyclonal antibodies. […] Both association and dissociation phases were monitored and data were analyzed. Results are shown in Table 3 (NB=no binding activity observed).

For test [7], the system named is NT-3 levels in sera of naïve C57BL/6 mice. Description: Serum NT-3 sandwich ELISA, naive mice. The test is classed as in vivo, mouse. Particulars: 50 mg/kg s.c. The text has this:
The limit of detection (˜40 pg/ml) was defined as two standard deviations (2σ) above background with a minimum of five NT-3 standards to define the response to concentration curve.

Test [8] has as its system transgenic mice of which the endogenous mouse NGF locus was replaced with the human NGF gene. Description: Seltzer neuropathic pain model in mice with human NGF gene, Hargreaves' test. It is filed as in vivo. As to conditions: 50 mg/kg s.c. at day 8 post-surgery; p<0.05. As to the method: These mice were used in a Seltzer neuropathic pain model to test REGN268 and control mAbs. Following the Seltzer surgery, these mice were tested at day 4 and at day 8 post-surgery to confirm that the thermal hyperalgesia had developed.

Chain of mouse NGF (mNGF) (P01139 122-241): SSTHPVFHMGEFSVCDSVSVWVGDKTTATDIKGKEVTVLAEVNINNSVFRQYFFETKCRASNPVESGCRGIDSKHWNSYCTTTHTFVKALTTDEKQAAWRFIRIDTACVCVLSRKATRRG
Chain of Human NGF binding to human p75-hFc (P01138 with tags, fused parts or gaps DEL136-138/DEL208-209): as the sequence (P01138 with tags, fused parts or gaps DEL136-138/DEL208-209) above

tanezumab [RN624] registered an IC50 in test [1] of less than 0.186 nM. The “% decrease from the baseline in paw withdrawal latency” value in test [2] (Table 12, 10 mg/kg s.c. 1 hr before CFA, Baseline, mean±SEM) is on record as 0.0 ± 0.0%; in test [2] (Table 12, 10 mg/kg s.c., Day 1 after CFA), −58.3 ± 5.5%; in test [2] (Table 12, 10 mg/kg s.c., Day 2 after CFA), −30.9 ± 5.2%; in test [2] (Table 12, 10 mg/kg s.c., Day 3 after CFA), −20.7 ± 6.3%; in test [2] (Table 13, 10 mg/kg s.c., Baseline), 0.0 ± 0.0%; in test [2] (Table 13, 10 mg/kg s.c., Day 1 after CFA), −61.7 ± 9.7%. Besides, the “% decrease from the baseline in paw withdrawal latency” value in test [2] (Table 13, 10 mg/kg s.c., Day 2 after CFA) is on record as −33.1 ± 17.9%; in test [2] (Table 13, 10 mg/kg s.c., Day 3 after CFA), −9.6 ± 15.4%; in test [2] (Table 13, 10 mg/kg s.c., Day 4 after CFA) it was −0.4 ± 18.5%. Further, in test [3], the “% Binding p75-hFc” value turned out to be 16%. In addition, the Kd in test [4] (Table 5) amounted to 1.4 pM; in test [4] (Table 6, selected purified antibodies) it was 1.4 pM; in test [6] it was 1.1 nM. Moreover, the “Serum NT-3” value came out at 172 ± 114 pg/mL in test [5]; 131 ± 41 pg/mL in test [7] (Day 1, limit of detection ~40 pg/ml); 199 ± 15 pg/mL in test [7] (Day 7); 196 ± 35 pg/mL in test [7] (Day 14). In addition, the NT-3 levels in test [7] (over 1, 7 and 14 days post treatment) fell in the range of 131 to 199 pg/mL.
On to “IgG1 Control: negative binding control, IgG1 control (AVASTIN®; Genentech, CA)”, for which the “relief of neuropathic pain in humanized NGF mice” value in test [8] is “had no effect”.
